# Where a name gives a salt, the structure may show the parent alone.
# Biological target: T1, Adrenergic β2 (Homo sapiens, UniProt P07550)
# T1 construct: Adherent H292 cells were removed from tissue culture flasks; endogenous in cells; host or cells: H292 cells
# Assay: Adrenergic β2 mediated cAMP production in H292 cells (AlphaScreen cAMP detection)
# Format: cell-based
# Details: Intrinsic Activity, fraction relative to the maximum activity determined for formoterol
# Procedure: Adrenergic β2 Mediated cAMP Production
# H292 cells were grown in 225 cm2 flasks incubator at 37° C., 5% CO2 in RPMI medium containing, 10% (v/v) FBS (foetal bovine serum) and 2 mM L-glutamine.
# Adherent H292 cells were removed from tissue culture flasks by treatment with Accutase™ cell detachment solution for 15 minutes. Flasks were incubated for 15 minutes in a humidified incubator at 37° C., 5% CO2. Detached cells were re-suspended in RPMI media (containing 10% (v/v) FBS and 2 mM L-glutamine) at 0.05×10^6 cells per mL. 5000 cells in 100 μL were added to each well of a tissue-culture-treated 96-well plate and the cells incubated overnight in a humidified incubator at 37° C., 5% CO2. The culture media was removed and cells were washed twice with 100 μL assay buffer and replaced with 50 μL assay buffer (HBSS solution containing 10 mM HEPES pH 7.4 and 5 mM glucose). Cells were rested at room temperature for 20 minutes after which time 25 μL of rolipram (1.2 mM made up in assay buffer containing 2.4% (v/v) dimethylsulphoxide) was added. Cells were incubated with rolipram for 10 minutes after which time test compounds were added and the cells were incubated for 60 minutes at room temperature. The final rolipram concentration in the assay was 300 μM and final vehicle concentration was 1.6% (v/v) dimethylsulphoxide. The reaction was stopped by removing supernatants, washing once with 100 μL assay buffer and replacing with 50 μL lysis buffer. The cell monolayer was frozen at −80° C. for 30 minutes (or overnight).
# The concentration of cAMP (cyclic adenosine monophosphate) in the cell lysate was determined using AlphaScreen™ methodology. The frozen cell plate was thawed for 20 minutes on a plate shaker then 10 μL of the cell lysate was transferred to a 96-well white plate. 40 μL of mixed AlphaScreen™ detection beads pre-incubated with biotinylated cAMP, was added to each well and the plate incubated at room temperature for 10 hours in the dark. The AlphaScreen™ signal was measured using an EnVision spectrophotometer (Perkin-Elmer Inc.) with the recommended manufacturer's settings. cAMP concentrations were determined by reference to a calibration curve determined in the same experiment using standard cAMP concentrations. Concentration response curves for agonists were constructed and data was fitted to a four parameter logistic equation to determine both the pEC50 and Intrinsic Activity. Intrinsic Activity was expressed as a fraction relative to the maximum activity determined for formoterol in each experiment.
# T1 sequence (P07550 whole entry): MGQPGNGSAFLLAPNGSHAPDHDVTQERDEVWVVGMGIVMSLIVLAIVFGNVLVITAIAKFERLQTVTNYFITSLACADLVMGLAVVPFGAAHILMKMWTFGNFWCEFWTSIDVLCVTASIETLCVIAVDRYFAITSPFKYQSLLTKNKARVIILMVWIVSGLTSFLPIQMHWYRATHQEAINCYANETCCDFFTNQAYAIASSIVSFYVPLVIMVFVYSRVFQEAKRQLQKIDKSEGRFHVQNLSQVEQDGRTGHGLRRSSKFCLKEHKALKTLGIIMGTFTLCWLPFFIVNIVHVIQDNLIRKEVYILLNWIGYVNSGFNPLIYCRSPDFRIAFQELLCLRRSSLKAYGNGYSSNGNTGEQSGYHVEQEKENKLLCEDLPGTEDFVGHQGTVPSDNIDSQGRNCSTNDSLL
row,β2 Int Act,Structure (SMILES)
1,0.78,"O=C(CCNCCc1ccccc1Cl)N(CCNCCc1ccc(O)c2[nH]c(=O)sc12)C1CCC(F)(F)CC1 [Example 46, N^3-[2-(2-Chlorophenyl)ethyl]-N^1-(4,4-difluorocyclohexyl)-N^1-(2-{[2-(4-hydroxy-2-oxo-2,3-dihydro-1,3-benzothiazol-7-yl)ethyl]amino}ethyl)-β-alaninamide bis-trifluoroacetic acid salt]"
2,0.73,"O=C(CCNCCc1cccc(Cl)c1)N(CCNCCc1ccc(O)c2[nH]c(=O)sc12)C1CCC(F)(F)CC1 [Example 47, N^3-[2-(3-Chlorophenyl)ethyl]-N^1-(4,4-difluorocyclohexyl)-N^1-(2-{[2-(4-hydroxy-2-oxo-2,3-dihydro-1,3-benzothiazol-7-yl)ethyl]amino}ethyl)-β-alaninamide bis-trifluoroacetic acid salt]"
3,0.55,"O=C(CCNCCc1ccc(Cl)cc1)N(CCNCCc1ccc(O)c2[nH]c(=O)sc12)C1CCC(F)(F)CC1 [Example 48, N^3-[2-(4-Chlorophenyl)ethyl]-N^1-(4,4-difluorocyclohexyl)-N^1-(2-{[2-(4-hydroxy-2-oxo-2,3-dihydro-1,3-benzothiazol-7-yl)ethyl]amino}ethyl)-β-alaninamide bis-trifluoroacetic acid salt]"
4,0.59,"O=C(CCNCCc1ccc(Cl)c(Cl)c1)N(CCNCCc1ccc(O)c2[nH]c(=O)sc12)C1CCC(F)(F)CC1 [Example 49, N^3-[2-(3,4-Dichlorophenyl)ethyl]-N^1-(4,4-difluorocyclohexyl)-N^1-(2-{[2-(4-hydroxy-2-oxo-2,3-dihydro-1,3-benzothiazol-7-yl)ethyl]amino}ethyl)-β-alaninamide bis-trifluoroacetic acid salt]"
5,0.91,"O=C(CCNCCc1cccc(Cl)c1)N(CCNCCc1ccc(O)c2[nH]c(=O)sc12)C1CCCCCC1 [Example 50, N^3-[2-(3-Chlorophenyl)ethyl]-N^1-cycloheptyl-N^1-(2-{[2-(4-hydroxy-2-oxo-2,3-dihydro-1,3-benzothiazol-7-yl)ethyl]amino}ethyl)-β-alaninamide bis-trifluoroacetic acid salt]"
6,0.59,"O=C(CCNCCc1ccc(Cl)cc1)N(CCNCCc1ccc(O)c2[nH]c(=O)sc12)C1CCCCCC1 [Example 51, N^3-[2-(4-Chlorophenyl)ethyl]-N^1-cycloheptyl-N^1-(2-{[2-(4-hydroxy-2-oxo-2,3-dihydro-1,3-benzothiazol-7-yl)ethyl]amino}ethyl)-β-alaninamide bis-trifluoroacetic acid salt]"
7,0.92,"O=C(CCNCCc1cccs1)N(CCNCCc1ccc(O)c2[nH]c(=O)sc12)C1CCCCCC1 [Example 52, N^1-Cycloheptyl-N^1-(2-{[2-(4-hydroxy-2-oxo-2,3-dihydro-1,3-benzothiazol-7-yl)ethyl]amino}ethyl)-N^3-[2-(2-thienyl)ethyl]-β-alaninamide bis-trifluoroacetic acid salt]"
8,0.74,"O=C(CCNCCc1ccc(F)c(F)c1)N(CCNCCc1ccc(O)c2[nH]c(=O)sc12)C1CCCCCC1 [Example 53, N^1-Cycloheptyl-N^3-[2-(3,4-difluorophenyl)ethyl]-N^1-(2-{[2-(4-hydroxy-2-oxo-2,3-dihydro-1,3-benzothiazol-7-yl)ethyl]amino}ethyl)-β-alaninamide bis-trifluoroacetic acid salt]"
9,0.69,"O=C(CCNCCc1cccc(OC(F)F)c1)N(CCNCCc1ccc(O)c2[nH]c(=O)sc12)C1CCCCCC1 [Example 54, N^1-Cycloheptyl-N^3-{2-[3-(difluoromethoxy)phenyl]ethyl}-N^1-(2-{[2-(4-hydroxy-2-oxo-2,3-dihydro-1,3-benzothiazol-7-yl)ethyl]amino}ethyl)-β-alaninamide bis-trifluoroacetic acid salt]"
10,0.81,"O=C(CCNCCc1ccc(F)cc1F)N(CCNCCc1ccc(O)c2[nH]c(=O)sc12)C1CCCCCC1 [Example 55, N^1-Cycloheptyl-N^3-[2-(2,4-difluorophenyl)ethyl]-N^1-(2-{[2-(4-hydroxy-2-oxo-2,3-dihydro-1,3-benzothiazol-7-yl)ethyl]amino}ethyl)-β-alaninamide bis-trifluoroacetic acid salt]"
11,0.86,"O=C(CCNCCc1cccc(F)c1F)N(CCNCCc1ccc(O)c2[nH]c(=O)sc12)C1CCCCCC1 [Example 56, N^1-Cycloheptyl-N^3-[2-(2,3-difluorophenyl)ethyl]-N^1-(2-{[2-(4-hydroxy-2-oxo-2,3-dihydro-1,3-benzothiazol-7-yl)ethyl]amino}ethyl)-β-alaninamide bis-trifluoroacetic acid salt]"
12,0.72,"O=C(CCNCCc1ccc(F)cc1Cl)N(CCNCCc1ccc(O)c2[nH]c(=O)sc12)C1CCCCCC1 [Example 57, N^3-[2-(2-Chloro-4-fluorophenyl)ethyl]-N^1-cycloheptyl-N^1-(2-{[2-(4-hydroxy-2-oxo-2,3-dihydro-1,3-benzothiazol-7-yl)ethyl]amino}ethyl)-β-alaninamide bis-trifluoroacetic acid salt]"
13,0.84,"O=C(CCNCCc1cc(F)cc(F)c1)N(CCNCCc1ccc(O)c2[nH]c(=O)sc12)C1CCCCCC1 [Example 58, N^1-Cycloheptyl-N^3-[2-(3,5-difluorophenyl)ethyl]-N^1-(2-{[2-(4-hydroxy-2-oxo-2,3-dihydro-1,3-benzothiazol-7-yl)ethyl]amino}ethyl)-β-alaninamide bis-trifluoroacetic acid salt]"
14,0.85,"O=C(CCNCCc1ccccc1)N(CCNCCc1ccc(O)c2[nH]c(=O)sc12)CC12CC3CC(CC(C3)C1)C2 [Example 59, N^1-(1-Adamantylmethyl)-N^1-(2-{[2-(4-hydroxy-2-oxo-2,3-dihydro-1,3-benzothiazol-7-yl)ethyl]amino}ethyl)-N^3-(2-phenylethyl)-β-alaninamide bis-trifluoroacetic acid salt]"
15,0.76,"O=C(CCNCCc1cccc(F)c1)N(CCNCCc1ccc(O)c2[nH]c(=O)sc12)CC12CC3CC(CC(C3)C1)C2 [Example 60, N^1-(1-Adamantylmethyl)-N^3-[2-(3-fluorophenyl)ethyl]-N^1-(2-{[2-(4-hydroxy-2-oxo-2,3-dihydro-1,3-benzothiazol-7-yl)ethyl]amino}ethyl)-β-alaninamide bis-trifluoroacetic acid salt]"
16,0.79,"O=C(CCNCCc1ccc(F)cc1)N(CCNCCc1ccc(O)c2[nH]c(=O)sc12)CC12CC3CC(CC(C3)C1)C2 [Example 61, N^1-(1-Adamantylmethyl)-N^3-[2-(4-fluorophenyl)ethyl]-N^1-(2-{[2-(4-hydroxy-2-oxo-2,3-dihydro-1,3-benzothiazol-7-yl)ethyl]amino}ethyl)-β-alaninamide bis-trifluoroacetic acid salt]"
17,0.87,"O=C(CCNCCc1ccccc1)N(CCNCCc1ccc(O)c2[nH]c(=O)sc12)C1CCSCC1 [Example 62, N^1-(2-{[2-(4-Hydroxy-2-oxo-2,3-dihydro-1,3-benzothiazol-7-yl)ethyl]amino}ethyl)-N^3-(2-phenylethyl)-N^1-(tetrahydro-2H-thiopyran-4-yl)-β-alaninamide bis-trifluoroacetic acid salt]"
18,0.93,"CCCC(CCC)N(CCNCCc1ccc(O)c2[nH]c(=O)sc12)C(=O)CCNCCc1cccc(F)c1 [Example 63, N^3-[2-(3-Fluorophenyl)ethyl]-N^1-(2-{[2-(4-hydroxy-2-oxo-2,3-dihydro-1,3-benzothiazol-7-yl)ethyl]amino}ethyl)-N^1-(1-propylbutyl)-β-alaninamide bis-trifluoroacetic acid salt]"
19,0.70,"CCCC(CCC)N(CCNCCc1ccc(O)c2[nH]c(=O)sc12)C(=O)CCNCCc1ccc(F)cc1 [Example 64, N^3-[2-(4-Fluorophenyl)ethyl]-N^1-(2-{[2-(4-hydroxy-2-oxo-2,3-dihydro-1,3-benzothiazol-7-yl)ethyl]amino}ethyl)-N^1-(1-propylbutyl)-β-alaninamide bis-trifluoroacetic acid salt]"
20,0.59,"CC(C)(CO)CN(CCNCCc1ccc(O)c2[nH]c(=O)sc12)C(=O)CCNCCc1ccccc1Cl [Example 65, N^3-[2-(2-Chlorophenyl)ethyl]-N^1-(3-hydroxy-2,2-dimethylpropyl)-N^1-(2-{[2-(4-hydroxy-2-oxo-2,3-dihydro-1,3-benzothiazol-7-yl)ethyl]amino}ethyl)-β-alaninamide bis-trifluoroacetic acid salt]"

# — patent US7700782B2, “Compounds 569” (AstraZeneca AB, priority 2007, dated 2010)
